In US20130197032A1, “[…] COMPOUNDS FOR THE TREATMENT OF NEUROLOGICAL AND […] DISORDERS” (A. CARLSSON RESEARCH AB, priority 2010, published 2013):
Where “and” joins values, the source holds several entries; their conditions need not be identical. Identical values can stand only once. Like-named read-outs stand apart in the source and are kept apart here.

Tests used:
drug naive mice = assay: Head twitch induction in mice; assay type: in vivo; details: DOI 1 mg/kg ip, OSU6162 enantiomers 9.375-300 μmol/kg ip, 10 min before registration
Description: The animals used in the head twitch experiments were individually placed in Macrolon type II cages and allowed to habituate to these test cages during 30 minutes before the video registration of behavior began. […] The animals were videotaped for 10 minutes; the behavior was scored during the first 5 minutes. The number of head twitches was counted from the videotapes by a person blind to the treatment.
In FIG. 5, the number of head twitches produced during 5 minutes is shown. The mice were habituated to the test cages during 30 minutes before the video registration of behavior began. […] Shown are means and SEM, n=6-12.

[1] = system: reserpine-pretreated mice; assay: Motor activity in monoamine-depleted (reserpine-pretreated) mice, video tracking; details: for antagonism of motor stimulation induced by (+)-OSU6162 250 μmol/kg ip / antagonism of motor stimulation induced by (−)-OSU6162 250 μmol/kg ip: haloperidol 1 mg/kg ip, raclopride 20 mg/kg sc, M100907 1 mg/kg ip, SCH23390 0.3 mg/kg sc, SCH39166 0.1-0.9 mg/kg sc
D2 receptors [2] = target: T1, D2 receptors (Homo sapiens, UniProt P14416); assay: R-SAT functional assay at D2; assay type: cell-based; set-up: expressed in transfected cells; host or cells: NIH-3T3
T1 sequence (P14416 1-414 isoform P14416-2): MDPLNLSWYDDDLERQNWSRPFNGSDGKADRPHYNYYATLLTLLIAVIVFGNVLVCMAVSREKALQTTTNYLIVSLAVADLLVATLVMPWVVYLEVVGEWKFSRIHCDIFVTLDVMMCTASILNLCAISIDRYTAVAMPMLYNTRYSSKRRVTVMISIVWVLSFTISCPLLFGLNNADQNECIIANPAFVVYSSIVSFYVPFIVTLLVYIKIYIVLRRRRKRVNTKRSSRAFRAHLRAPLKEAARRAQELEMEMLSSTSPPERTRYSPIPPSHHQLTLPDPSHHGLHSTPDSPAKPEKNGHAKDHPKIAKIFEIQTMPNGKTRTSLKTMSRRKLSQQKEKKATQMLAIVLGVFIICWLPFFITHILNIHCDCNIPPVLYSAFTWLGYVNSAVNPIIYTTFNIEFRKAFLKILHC

human 5-HT2A receptors [3] = target: T2, human 5-HT2A receptors (Homo sapiens, UniProt P28223); assay: Phosphatidyl inositol (PI) hydrolysis assay at 5-HT2A; assay type: cell-based; set-up: expressed in transfected cells
T2 sequence (P28223 whole entry): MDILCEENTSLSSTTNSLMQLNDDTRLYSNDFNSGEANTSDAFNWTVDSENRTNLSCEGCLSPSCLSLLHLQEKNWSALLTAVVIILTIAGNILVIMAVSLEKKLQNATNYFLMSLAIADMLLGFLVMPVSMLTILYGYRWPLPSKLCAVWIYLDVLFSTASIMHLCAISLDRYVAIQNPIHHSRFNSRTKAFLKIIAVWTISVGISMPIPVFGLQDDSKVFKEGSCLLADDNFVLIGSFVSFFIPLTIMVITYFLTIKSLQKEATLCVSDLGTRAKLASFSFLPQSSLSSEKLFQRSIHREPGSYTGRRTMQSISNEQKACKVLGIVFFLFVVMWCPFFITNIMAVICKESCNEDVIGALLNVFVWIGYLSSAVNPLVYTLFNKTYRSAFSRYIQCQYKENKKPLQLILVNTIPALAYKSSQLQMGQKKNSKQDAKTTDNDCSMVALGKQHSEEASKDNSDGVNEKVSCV
Description: After lysing the cells with 50 μl of 0.1M formic acid, 20 μl each cell lysate was mixed with 80 μl (1 mg) RNA Binding YSi-SPA beads (GE Healthcare, Chalfont St. Giles, UK) on PICO plates (PerkinElmer) and counted on a TopCount (Packard).
Each curve is representative of at least three or more independent experiments.

human 5-HT2A receptors [4] = target: T2, human 5-HT2A receptors; assay: BRET2 beta-arrestin-2 recruitment assay at 5-HT2A; assay type: cell-based; set-up: expressed in transfected cells; host or cells: HEK-293T
Description: (§1) BRET-2 signals were measured using the multiplate reader Mithras 940LB (Berthold Technologies, Bad Wildbad, Germany) and were calculated as the ratio between the Renilla luciferase emission and the GFP2 emission corrected by the background emissions of non-transfected cells.

D2 receptors [5] = target: T1, D2 receptors; assay: GTPγS binding assay at D2; assay type: biochemical; set-up: expressed in transfected cells
Description: Cells were not centrifuged following cell scraping, but were collected directly into the ice-cold nitrogen cavitation chamber.
50 μl/well Wheat-Germ Agglutinin SPA beads (Perkin Elmer, Shelton, Conn.) were added to the plates and the plates incubated for 1 hour. The plates were then centrifuged at 1,000×g for 10 minutes and read on a Top Count NXT (Perkin Elmer, Shelton, Conn.).
To relate the results observed in R-SAT™ to a more conventional assay system, these ligands were also tested for the ability to induce GTPγS binding through D2 receptors.

human 5-HT2A receptors [6] = target: T2, human 5-HT2A receptors; assay: R-SAT functional assay at 5-HT2A; assay type: cell-based; set-up: expressed in transfected cells; host or cells: NIH-3T3; details: for EC50: read-out: R-SAT pEC50 (converted)
D2 receptors [7] = target: T1, D2 receptors; assay: BRET2 beta-arrestin-2 recruitment assay at D2; assay type: cell-based; set-up: expressed in transfected cells; host or cells: HEK-293T
Description: as §1
Each curve is representative of two to three independent experiments.

human 5-HT1F receptor = target: T3, human 5-HT1F receptor (Homo sapiens, UniProt P30939); assay: R-SAT assay 5-HT1F; assay type: cell-based; details: Table 3, 5-HT1F
T3 construct: expressed in transfected cells; host or cells: NIH/3T3
T3 sequence (P30939 1-366): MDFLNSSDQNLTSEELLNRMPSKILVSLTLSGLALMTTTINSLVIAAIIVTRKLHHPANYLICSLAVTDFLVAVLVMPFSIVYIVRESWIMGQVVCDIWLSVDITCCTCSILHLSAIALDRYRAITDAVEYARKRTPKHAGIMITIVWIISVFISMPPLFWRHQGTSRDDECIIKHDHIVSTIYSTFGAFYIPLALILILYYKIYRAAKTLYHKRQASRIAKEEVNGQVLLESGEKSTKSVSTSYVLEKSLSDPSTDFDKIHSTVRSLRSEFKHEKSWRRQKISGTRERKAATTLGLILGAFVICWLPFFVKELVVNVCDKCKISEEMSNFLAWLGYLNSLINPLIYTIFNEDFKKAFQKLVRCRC

human 5-HT1E receptor = target: T4, human 5-HT1E receptor (Homo sapiens, UniProt P28566); assay: R-SAT assay 5-HT1E; assay type: cell-based; details: Table 3, 5-HT1E
T4 construct: expressed in transfected cells; host or cells: NIH/3T3
T4 sequence (P28566 whole entry): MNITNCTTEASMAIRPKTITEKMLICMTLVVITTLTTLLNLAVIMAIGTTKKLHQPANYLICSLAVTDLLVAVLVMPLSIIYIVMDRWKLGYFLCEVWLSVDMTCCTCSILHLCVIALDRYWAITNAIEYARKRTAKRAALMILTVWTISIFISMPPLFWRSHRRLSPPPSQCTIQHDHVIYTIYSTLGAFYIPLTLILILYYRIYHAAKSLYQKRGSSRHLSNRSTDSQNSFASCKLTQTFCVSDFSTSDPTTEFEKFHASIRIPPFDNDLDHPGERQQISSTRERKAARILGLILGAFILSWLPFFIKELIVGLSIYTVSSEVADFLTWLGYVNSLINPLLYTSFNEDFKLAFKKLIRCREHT

human H1 receptor = target: T5, human H1 receptor (Homo sapiens, UniProt P35367); assay: R-SAT assay H1; assay type: cell-based; details: Table 3, H1; percent response of reference Histamine
T5 construct: expressed in transfected cells; host or cells: NIH/3T3
T5 sequence (P35367 whole entry): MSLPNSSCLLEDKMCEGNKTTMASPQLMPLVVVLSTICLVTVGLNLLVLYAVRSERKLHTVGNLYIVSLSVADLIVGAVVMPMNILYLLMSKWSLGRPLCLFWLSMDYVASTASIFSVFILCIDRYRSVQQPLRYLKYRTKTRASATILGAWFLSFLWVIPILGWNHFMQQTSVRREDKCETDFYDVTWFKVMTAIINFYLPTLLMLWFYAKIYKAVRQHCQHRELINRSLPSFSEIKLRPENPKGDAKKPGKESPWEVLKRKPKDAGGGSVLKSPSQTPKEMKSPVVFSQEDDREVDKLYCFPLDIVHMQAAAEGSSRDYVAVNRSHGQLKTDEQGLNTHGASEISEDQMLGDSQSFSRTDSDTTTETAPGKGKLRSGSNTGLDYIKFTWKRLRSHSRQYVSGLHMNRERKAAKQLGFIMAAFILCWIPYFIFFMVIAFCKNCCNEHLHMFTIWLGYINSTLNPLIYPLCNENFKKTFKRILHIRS

habituated rats = assay: Locomotion in habituated rats, photocell activity boxes; details: habituated rats
Description: Motor activity experiments in both active and habituated rats were performed on male Sprague-Dawley rats (Charles River, Germany) weighing 280-320 g. Prior to testing, rats were housed in groups of four or five in ventilated Macrolon type IV cages for approximately one week.
Rats were housed in a normal daylight cycle and the experiments were carried out during daytime. […] During the following 5 minutes test drugs were injected, after which the rats were returned to the boxes for another 60 minutes. Five by five rows of photocell beams at floor level allowed a computer based-system to register horizontal activity. Motor activity is presented as accumulated number of unrepeated beam breaks, i.e. several consecutive breakings of one beam is counted as one beam break. The software was set to register behavior from the rats' first introduction into the arena until it was finally removed from the box, i.e. for 110 or 130 minutes.
Locomotion was measured as accumulated unrepeated beam breaks. […] This was followed by 60 minutes of registration. Data are calculated from a 30 minutes period, 5-35 minutes after injection, and plotted as means and SEM. […] Data were calculated from a 30 minutes period, 5-35 minutes after injection.
The effect of haloperidol on the locomotor stimulation was also studied in habituated rats (see FIG. 10). Locomotion was measured as accumulated unrepeated beam breaks. Rats were given haloperidol (0.05, 0.2, 0.5 mg/kg, sc) and were then allowed to habituate for 65 minutes. […] Data are calculated from a 30 minutes period, taken 5-35 minutes after injection, and plotted as means and SEM. N=4-5.

[8] = Table 2, percent response of reference ligand pergolide, mean ± SEM
[9] = percent response of reference ligand 5-HT, mean ± SEM
[10] = percent response of reference ligand dopamine, mean ± SEM
[11] = Table 1, negative logarithm of EC50 in molar (M), NIH3T3 cells, mean ± SEM
[12] = negative logarithm of EC50 in molar (M), HEK 293T cells, mean ± SEM
[13] = negative logarithm of EC50 in molar
[14] = percent response of reference BRL 54443
[15] = reserpine-pretreated mice, M100907 0.1 and 1 mg/kg ip 30 minutes prior
[16] = haloperidol 0.05, 0.2 and 0.5 mg/kg sc

COc1cc(CC(C)N)c(OC)cc1I.Cl (racemic) [DOI, (±)-1-(2,5-dimethoxy-4-iodophenyl)-2-aminopropane hydrochloride, reference compound]
head twitches produced during 5 minutes (drug naive mice): induces head twitches in the mouse | motor activity (distance moved, DM 1.5) ([1]; reserpine 10 mg/kg ip 20 h prior, test drug ip just prior to recording, first 30 minutes, vs reserpine only group): able to induce locomotor stimulation in reserpine-pretreated mice

CCCN1CCCC(c2cccc(O)c2)C1 (single isomer, unassigned; (+)) [(+)-3-PPP, [3-(3-hydroxyphenyl)-N-n-propyl]piperidine]
R-SAT Eff(%) (D2 receptors [2]; [8]): 101 ± 8% | EC50 (human 5-HT2A receptors [3]; negative logarithm of EC50 in molar (M), HEK 293T cells, mean ± SEM, read-out: PI Hydrolysis pEC50 (converted)): > 1e-05 M | PI Hydrolysis Eff (%) (human 5-HT2A receptors [3]; [9]): 17 — % | EC50 (human 5-HT2A receptors [4]; negative logarithm of EC50 in molar (M), HEK 293T cells, mean ± SEM, read-out: BRET2 pEC50 (converted)): > 0.0001 M | BRET2 Eff % (human 5-HT2A receptors [4]; [9]): 42 ± 5% | agonist profile in GTPγS binding assays at D2 receptors (D2 receptors [5]): full agonist | GTPγS Eff % (D2 receptors [5]; [10]): 102 ± 4% | R-SAT Eff(%) (human 5-HT2A receptors [6]): 87 ± 26% | EC50 (human 5-HT2A receptors [6]; [11]): 6.31e-06 M | agonist profile in BRET2 assays at D2 receptors (D2 receptors [7]): partial agonists | BRET2 Eff % (D2 receptors [7]; [10]): 58 ± 2%

CCCN1CCCC(c2cccc(O)c2)C1 (single isomer, unassigned; (-)) [(−)-3-PPP, [3-(3-hydroxyphenyl)-N-n-propyl]piperidine]
R-SAT Eff(%) (D2 receptors [2]; [8]): 77% and 77 ± 4% | PI Hydrolysis Eff (%) (human 5-HT2A receptors [3]; [9]): 5 — % | BRET2 Eff % (human 5-HT2A receptors [4]; [9]): 10 ± 4% | agonist profile in GTPγS binding assays at D2 receptors (D2 receptors [5]): strong partial agonists | GTPγS Eff % (D2 receptors [5]; [10]): 77 ± 4% | R-SAT Eff(%) (human 5-HT2A receptors [6]): 47 ± 12% | EC50 (human 5-HT2A receptors [6]; [11]): 3.98e-06 M | BRET2 Eff % (D2 receptors [7]; [10]): 2% and 2 ± 0%

NCCc1c[nH]c2ccc(O)cc12 [5-HT, 5-hydroxytryptamine]
PI Hydrolysis Eff (%) (human 5-HT2A receptors [3]): 100 ± 0% | BRET2 Eff % (human 5-HT2A receptors [4]): 100 ± 5%

CCN(CC)C(=O)N[C@H]1C[C@@H]2c3cccc4[nH]cc(c34)C[C@H]2N(C)C1 [(+)-Terguride]
R-SAT Eff(%) (D2 receptors [2]): 92 ± 20% | R-SAT pEC50 (D2 receptors [2]; Table 2, negative logarithm of EC50 in molar, NIH3T3 cells, mean ± SEM): 11.1 ± 0.2 | PI Hydrolysis pEC50 (human 5-HT2A receptors [3]; [12]): 9.1 ± 0.2 | PI Hydrolysis Eff (%) (human 5-HT2A receptors [3]; [9]): 52 ± 8% | BRET2 pEC50 (human 5-HT2A receptors [4]; [12]): 7.0 ± 0.0 | BRET2 Eff % (human 5-HT2A receptors [4]; [9]): 42 ± 2% | GTPγS pEC50 (D2 receptors [5]): 9.3 ± 0.2 | agonist profile in GTPγS binding assays at D2 receptors (D2 receptors [5]): strong partial agonists | GTPγS Eff % (D2 receptors [5]; [10]): 88 ± 8% | R-SAT pEC50 (human 5-HT2A receptors [6]; [11]): 9.8 ± 0.9 | R-SAT Eff(%) (human 5-HT2A receptors [6]; Table 1, percent response of reference ligand 5-CT, mean ± SEM): 89 ± 13% | BRET2 pEC50 (D2 receptors [7]; negative logarithm of EC50 in molar, HEK293T cells, mean ± SEM): 7.2 ± 0.1 | BRET2 Eff % (D2 receptors [7]; [10]): 8 ± 1% | BRET2 Eff % (D2 receptors [7]; percent response of reference ligand dopamine, mean ± SEM, listed as (+)-terguride): 8%

CN1CCC(c2c[nH]c3ccc(O)cc23)CC1 [BRL 54443, reference compound]
pEC50 (human 5-HT1F receptor; [13]): 6.8 | Eff (%) (human 5-HT1F receptor; [14]): 100% | pEC50 (human 5-HT1E receptor; [13]): 6.7 | Eff (%) (human 5-HT1E receptor; [14]): 100%

NCCc1c[nH]cn1 [Histamine, reference compound]
Eff (%) (human H1 receptor): 100%

COc1cccc([C@H](O)C2CCN(CCc3ccc(F)cc3)CC2)c1OC [M100907, (+)-(R)-1-[1-[2-(4-fluorophenyl)ethyl]piperidin-4-yl]-1-(2,3-dimethoxyphenyl)methanol]
reversal of (−)-OSU6162-induced locomotor stimulation (habituated rats; M100907 1 mg/kg ip, 15-35 minute interval): significant reversal | counteraction of locomotor stimulation induced by (+)-OSU6162 50 μmol/kg sc (habituated rats; M100907 0.5 and 1 mg/kg ip, 5-35 minute interval): significantly counteracted | effect of three doses on motor activity increase caused by 250 μmol/kg of (−)-OSU6162 ([1]; reserpine-pretreated mice, M100907 0.01, 0.1, 1 mg/kg ip 30 minutes prior): Only the 1 mg/kg dose significantly decreased motor activity | antagonism of locomotor stimulation induced by DOI 2.5 mg/kg ([1]; reserpine-pretreated mice, M100907 0.01, 0.1, 1 mg/kg ip 30 minutes prior, all doses significant): highly effective in antagonizing the locomotor stimulant effects of 2.5 mg/kg of DOI | reversal of locomotor stimulation induced by 125 μmol/kg of (+)-OSU6162 [1, 15]: effectively reversed | reversal of locomotor stimulation induced by 125 μmol/kg of (−)-OSU6162 [1, 15]: effectively reversed | antagonism of motor stimulation induced by (+)-OSU6162 250 μmol/kg ip ([1]; reserpine-pretreated mice): effectively antagonized this response | antagonism of motor stimulation induced by (−)-OSU6162 250 μmol/kg ip ([1]; reserpine-pretreated mice): effectively antagonized

Clc1ccc2c(c1)N=C(N1CCNCC1)c1ccccc1N2 [NDMC, 8-chloro-11-(1-piperazinyl)-5H-dibenzo[b,e][1,4]diazepine]
R-SAT Eff(%) (D2 receptors [2]): 33 ± 2% | EC50 (D2 receptors [2]; Table 2, negative logarithm of EC50 in molar, NIH3T3 cells, mean ± SEM, read-out: R-SAT pEC50 (converted)): 0.0126 µM | EC50 (D2 receptors [5]; negative logarithm of EC50 in molar, HEK293T membranes, mean ± SEM, read-out: GTPγS pEC50 (converted)): 0.0398 µM | GTPγS Eff % (D2 receptors [5]; [10]): 18 ± 1% | agonist profile in BRET2 assays at D2 receptors (D2 receptors [7]): no agonist activity | BRET2 Eff % (D2 receptors [7]; [10]): 0 ± 0%

CCCN[C@H]1CCc2nc(N)sc2C1 [Pramipexole, (6S)—N^6-propyl-4,5,6,7-tetrahydro-1,3-benzothiazole-2,6-diamine]
R-SAT Eff(%) (D2 receptors [2]): 84 ± 9% | BRET2 Eff % (human 5-HT2A receptors [4]): 52 ± 3% | GTPγS Eff % (D2 receptors [5]): 87 ± 6% | R-SAT Eff(%) (human 5-HT2A receptors [6]): 48 ± 9% | BRET2 Eff % (D2 receptors [7]): 104 ± 1% | agonist profile in BRET2 assays at D2 receptors (D2 receptors [7]): full agonist

CN1CCc2cc(Cl)c(O)cc2[C@H]2c3ccccc3CC[C@@H]21 [SCH39166]
antagonism of motor stimulation induced by (+)-OSU6162 250 μmol/kg ip ([1]; reserpine-pretreated mice): did not significantly influence the motor activation | antagonism of motor stimulation induced by (−)-OSU6162 250 μmol/kg ip ([1]; reserpine-pretreated mice): did not significantly influence the motor activation

O=C(CCCN1CCC(O)(c2ccc(Cl)cc2)CC1)c1ccc(F)cc1 [haloperidol]
antagonism of locomotor stimulation induced by (+)-OSU6162 50 μmol/kg sc (habituated rats; [16]): effectively antagonized the locomotor stimulation | antagonism of locomotor stimulation induced by (−)-OSU6162 50 μmol/kg sc (habituated rats; [16]): effectively antagonized the locomotor stimulation | antagonism of motor stimulation induced by (+)-OSU6162 250 μmol/kg ip ([1]; reserpine-pretreated mice): None of the dopaminergic antagonists, i e SCH23390 (0.3 mg/kg), raclopride (20 mg/kg) or haloperidol (1 mg/kg), could antagonize | antagonism of motor stimulation induced by (−)-OSU6162 250 μmol/kg ip ([1]; reserpine-pretreated mice): could not antagonize

CCN1CCC[C@H]1CNC(=O)c1c(O)c(Cl)cc(Cl)c1OC [raclopride]
antagonism of motor stimulation induced by (+)-OSU6162 250 μmol/kg ip ([1]; reserpine-pretreated mice): None of the dopaminergic antagonists, i e SCH23390 (0.3 mg/kg), raclopride (20 mg/kg) or haloperidol (1 mg/kg), could antagonize | antagonism of motor stimulation induced by (−)-OSU6162 250 μmol/kg ip ([1]; reserpine-pretreated mice): could not antagonize
